Earlier results as cited in US20190320698A1, “HYDROLYZED PECTIN AND USEOF THE SAME” (International Flavors & Fragrances Inc., priority 2018, published 2019).

Conditions: approximate values

Water Solubility (g/L, approx.) | SMILES
Insoluble | CSC [dimethyl sulfide]
~90 g/L | CCOC(C)=O [ethyl acetate]
~6 g/L | CCCC(=O)OCC [ethyl butyrate]
~14 g/L | CCOC(=O)CC [ethyl propionate]

SMILES | Water Solubility (g/L, approx.)
CCCC(=O)OC [methyl butyrate] | ~15 g/L
